Measured values: patent US10774049B2, “PU.1 inhibitors” (Albert Einstein College of Medicine, priority 2016, dated 2020)

Columns and labels:
[1] = system: PU.1 URE−/− AML cell line; test: Cell viability/growth of PU.1 URE−/− AML cells; assay type: cell-based, murine; conditions: Mus musculus; read-out: IC50 URE−/−
Procedure: (§1) FIG. 2A-2F. PU.1 inhibition decreases cell growth and increases apoptosis of PU.1^1″ leukemic cells. (A) Chemical structures of heterocyclic diamidines DB1976, DB2115 and DB2313 used in this study. (B) Relative cell viability of URE−/− cells and BAF3 cells after treatment with increasing concentrations of vehicle or small molecules. Cell viability was assessed after 48 h. Data represent means of technical triplicate from one representative experiment; fold change compared to Vehicle is shown. (C) Cell proliferation assay of URE−/− after treatment with DB1976 (n=5), DB2115 (n=3), DB2313 (n=3), of MOLM13 cells (n=3), and THP1 cells (n=3). Cell counting was performed every 24 h during 4 days. Data represent means±SD of technical triplicate from one representative experiment. Forward strand: SEQ ID NO:3, and Reverse strand: SEQ ID NO:4; derived from the λB motif from the murine Ig lambda 2-4 enhancer, a known native PU.1-dependent gene and specific binding site for PU.1. (D) Clonogenic capacities of URE−/− cells after treatment with DB1976 (n=5), DB2115 (n=3) and DB2313 (n=4) in the first plating, and after serial replatings (n=3). Data represent means±SD of technical triplicate from one representative experiment. (E) Apoptotic cells (Annexin-V+Dapi−) fraction in URE−/− cells after 48 h of treatment with DB1976 (n=6), DB2115 (n=6) and DB2313 (n=3). Data represent the means±SD of independent experiments; fold change compared to Vehicle is shown. *P<0.05, **P<0.01, ***P<0.001, ****P<0.0001 (F) Dose dependent inhibitor of PU.1-dependent transactivation.
(§2) To determine if our PU.1 inhibitors have an effect on PU.1^low-induced AML cells, we treated the PU.1 URE^−/− AML cell line with compounds at different concentrations. Treatment with the drugs led to a profound decrease in growth of PU.1 URE^−/− AML cells after 48 h whereas it had only minimal or no effects on control cells with normal PU.1 levels (BaF3), even at very high doses (FIG. 3A). […] Similar to our observations with PU.1-directed shRNAs, treatment with pharmacological PU.1 inhibitors led to a significant 1.6-, 2- and 3.5-fold increase of apoptotic cells with DB1976, DB2115 and DB2313, respectively, in murine PU.1 URE^−/− AML cells (FIG. 3C), and similar effects in human MOLM13 cells.

BaF3 cells = test: Cell viability of BaF3 control cells; assay type: cell-based, murine; conditions: Mus musculus, NR = Not Reached
Procedure: as §1, §2

Row | SMILES | IC50 [1] [µM] | IC50 (BaF3 cells) [µM]
1 | N=C(N)c1ccc2nc(-c3ccc(Oc4ccc(Oc5ccc(-c6nc7ccc(C(=N)N)cc7[nH]6)cc5)cc4)cc3)[nH]c2c1 [DB2483] | 5.3 | –
2 | CC(C)NC(=N)c1ccc2nc(-c3ccc(OCCOCCOc4ccc(-c5nc6ccc(C(=N)NC(C)C)cc6[nH]5)cc4)cc3)[nH]c2c1 [DB2295] | 10.5 | –
3 | CC(C)NC(=N)c1ccc2nc(-c3ccc(OCc4cccc(COc5ccc(-c6nc7ccc(C(=N)NC(C)C)cc7[nH]6)cc5)n4)cc3)[nH]c2c1 [DB2302] | 7.8 | –
4 | Cn1c(-c2ccc(OCCCOc3ccc(-c4nc5cc(C(=N)N)ccc5n4C)cc3)cc2)nc2cc(C(=N)N)ccc21 [DB2237] | 4.4 | –
5 | N=C(N)c1ccc2nc(-c3ccc(OCC(F)(F)C(F)(F)Oc4ccc(-c5nc6ccc(C(=N)N)cc6[nH]5)cc4)cc3)[nH]c2c1 [DB2514] | 5.6 | 44.5
6 | CN(CCOc1ccc(-c2nc3ccc(C(=N)N)cc3[nH]2)cc1)CCOc1ccc(-c2nc3ccc(C(=N)N)cc3[nH]2)cc1 [DB2150] | 20 | 416
7 | Cn1c(-c2ccc(-c3ccc(C(=N)N)cc3)s2)nc2cc(-c3ccc(C(=N)N)cc3)ccc21 [DB2457] | 16.5 | –
8 | N=C(N)c1ccc2nc(-c3ccc(OCCOCCOc4ccc(-c5nc6ccc(C(=N)N)cc6[nH]5)cc4)cc3)[nH]c2c1 [DB2146] | 5 | 68
9 | N=C(N)c1ccc2nc(-c3ccc(OCC(F)(F)C(F)(F)C(F)(F)COc4ccc(-c5nc6ccc(C(=N)N)cc6[nH]5)cc4)cc3)[nH]c2c1 [DB2355] | 1.7 | 49
10 | Cn1c(-c2ccc(OCc3cccc(COc4ccc(-c5nc6cc(C(=N)N)ccc6n5C)cc4)n3)cc2)nc2cc(C(=N)N)ccc21 [DB2326] | 1.9 | 48
